The text below walks through data of patent US20100041892A1, “Therapeutic agent for diabetes” (priority 2005, published 2010).

Structures are written as SMILES.

What is called melting point is the temperature of the solid-liquid transition. For the compound `CCCCCS(=O)(=O)NC(=O)/C=C/c1cc(OC2CCOCC2)nn1Cc1ccc(Cl)cc1Cl` [Example 116, (2E)-3-[1-(2,4-dichlorobenzyl)-3-(tetrahydro-2H-pyran-4-yloxy)-1H-pyrazol-5-yl]-N-(pentylsulfonyl)acrylamide], the melting point fell in the range of 154 to 157 °C.
On to `CCCCCC(=O)NS(=O)(=O)CCc1cc(OCCCC)nn1Cc1ccc(Cl)cc1Cl` [Example 128, N-({2-[3-butoxy-1-(2,4-dichlorobenzyl)-1H-pyrazol-5-yl]ethyl}sulfonyl)hexanamide], for which the melting point was in the range of 90 to 92 °C.
To `CCCCCS(=O)(=O)NC(=O)CCc1ccc(OCCOC)cc1OC1CCCCC1` [Example 164, 3-[2-(cyclohexyloxy)-4-(2-methoxyethoxy)phenyl]-N-(pentylsulfonyl)propanamide] belongs 64.1 to 65.4 °C; to `COCCOc1ccc(COC(=O)NS(=O)(=O)Nc2ccc(Cl)cc2)c(Oc2ncc(C(F)(F)F)cc2Cl)c1` [Example 68, 2-{[3-chloro-5-(trifluoromethyl)pyridin-2-yl]oxy}-4-(2-methoxyethoxy)benzyl {[(4-chlorophenyl)amino]sulfonyl}carbamate], 159 °C (dec.); to `CCCCCS(=O)(=O)NC(=O)/C=C/c1ccc(C)n1Cc1ccc(Cl)cc1Cl` [Example 457, (2E)-3-[1-(2,4-dichlorobenzyl)-5-methyl-1H-pyrrol-2-yl]-N-(pentylsulfonyl)acrylamide], 189 to 190 °C.
For `CCCCCS(=O)(=O)NC(=O)/C=C/c1ccc(OCCO[Si](C(C)C)(C(C)C)C(C)C)cc1Oc1ncc(C(F)(F)F)cc1Cl` the value was 106 to 108 °C.
For the compound `COCOc1cc(/C=C/S(=O)(=O)NC(=O)OC(C)(C)C)n(Cc2ccc(Cl)cc2Cl)n1` [Example 200, tert-butyl-({(E)-2-[1-(2,4-dichlorobenzyl)-3-(methoxymethoxy)-1H-pyrazol-5-yl]vinyl}sulfonyl)carbamate], the melting point fell in the range of 139 to 140 °C.
Compound `CCCCOC(=O)NS(=O)(=O)/C=C/c1cc(OCCCC)nn1Cc1ccc(Cl)cc1Cl` [Example 130, butyl ({(E)-2-[3-butoxy-1-(2,4-dichlorobenzyl)-1H-pyrazol-5-yl]vinyl}sulfonyl)carbamate] came in with a melting point of 137 to 138 °C.
As for `C/C(=C\c1ccc(OC(C)C)cc1Oc1ncc(C(F)(F)F)cc1Cl)C(=O)NS(=O)(=O)NCCc1ccccn1` [Example 471, (2E)-3-(2-{[3-chloro-5-(trifluoromethyl)pyridin-2-yl]oxy}-4-isopropoxyphenyl)-2-methyl-N-{[(2-pyridin-2-ylethyl)amino]sulfonyl}acrylamide], the melting point fell in the range of 121 to 123 °C.
As to `COCCOc1ccc(/C=C/C(=O)NS(=O)(=O)c2ccc(C)cc2)c(Oc2ncc(C(F)(F)F)cc2Cl)c1` [Example 236, (2E)-3-[2-{[3-chloro-5-(trifluoromethyl)pyridin-2-yl]oxy}-4-(2-methoxyethoxy)phenyl]-N-[(4-methylphenyl)sulfonyl]acrylamide], the melting point was 102.5 to 106.5 °C.
For `CCCCCS(=O)(=O)NC(=O)/C=C/c1ccc(OCCOC)cc1Oc1cc(C(F)(F)F)ccc1[N+](=O)[O-]` [Example 174, (2E)-3-{4-(2-methoxyethoxy)-2-[2-nitro-5-(trifluoromethyl)phenoxy]phenyl}-N-(pentylsulfonyl)acrylamide] the value was 164.5 to 165.2 °C.
`CC(C)CCS(=O)(=O)NC(=O)/C=C/c1cc(C2CC2)nn1Cc1ccc(C(F)(F)F)cc1Cl` [Example 118, (2E)-3-{1-[2-chloro-4-(trifluoromethyl)benzyl]-3-cyclopropyl-1H-pyrazol-5-yl}-N-[(3-methylbutyl)sulfonyl]acrylamide] had a melting point of 145 to 147 °C.
To `CCCCOc1cc(/C=C/C(=O)NS(=O)(=O)CCC(C)C)n(Cc2ccc(C(F)(F)F)cc2Cl)n1` [Example 150, (2E)-3-{3-butoxy-1-[2-chloro-4-(trifluoromethyl)benzyl]-1H-pyrazol-5-yl}-N-[(3-methylbutyl)sulfonyl]acrylamide] belongs 89.5 to 90.5 °C; to `CCCCCS(=O)(=O)NC(=O)CCc1cc(OCCCC)nn1Cc1ccc(C(F)(F)F)cc1Cl` [Example 107, 3-{3-butoxy-1-[2-chloro-4-(trifluoromethyl)benzyl]-1H-pyrazol-5-yl}-N-(pentylsulfonyl)propanamide], 131 to 133 °C; to `COCCCNS(=O)(=O)NC(=O)/C(C)=C/c1ccc(OCCOC)cc1Oc1ncc(C(F)(F)F)cc1Cl` [Example 227, (2E)-3-[2-{[3-chloro-5-(trifluoromethyl)pyridin-2-yl]oxy}-4-(2-methoxyethoxy)phenyl]-N-{[(3-methoxypropyl)amino]sulfonyl}-2-methylacrylamide], 121 to 122 °C.
For `CCCCCS(=O)(=O)NC(=O)/C=C/c1ccc(OCCOC)cc1Nc1ccc(C(F)(F)F)cc1` [Example 176, (2E)-3-(4-(2-methoxyethoxy)-2-{[4-(trifluoromethyl)phenyl]amino}phenyl)-N-(pentylsulfonyl)acrylamide] the value was 142.3 to 142.6 °C; for `CCCCOc1cc(CCS(=O)(=O)NC(=O)OCc2ccccc2)n(Cc2ccc(Cl)cc2Cl)n1` [Example 138, benzyl ({2-[3-butoxy-1-(2,4-dichlorobenzyl)-1H-pyrazol-5-yl]ethyl}sulfonyl)carbamate], 92 to 95 °C; for `CCCCCS(=O)(=O)NC(=O)CCc1cc(C(C)(C)C)nn1Cc1ccc(C(F)(F)F)cc1Cl` [Example 122, 3-{3-tert-butyl-1-[2-chloro-4-(trifluoromethyl)benzyl]-1H-pyrazol-5-yl}-N-(pentylsulfonyl)propanamide], 136 to 137 °C.
`COCCOc1ccc(/C=C/C(=O)NS(=O)(=O)c2ccc(C(F)(F)F)cc2)c(Oc2ncc(C(F)(F)F)cc2Cl)c1` [Example 234, (2E)-3-[2-{[3-chloro-5-(trifluoromethyl)pyridin-2-yl]oxy}-4-(2-methoxyethoxy)phenyl]-N-{[4-(trifluoromethyl)phenyl]sulfonyl}acrylamide]: the melting point lay within 186.3 to 186.5 °C.
Consider `COCCOc1ccc(CCC(=O)NS(=O)(=O)CCC(C)C)c(Oc2ncc(C(F)(F)F)cc2Cl)c1` [Example 43, 3-[2-{[3-chloro-5-(trifluoromethyl)pyridin-2-yl]oxy}-4-(2-methoxyethoxy)phenyl]-N-[(3-methylbutyl)sulfonyl]propanamide], for which the melting point is 130 to 132 °C.
`CCCCCS(=O)(=O)NC(=O)CCc1ccc(OCCOC)cc1Oc1ncc(Cl)cc1Cl` [Example 171, 3-[2-[(3,5-dichloropyridin-2-yl)oxy]-4-(2-methoxyethoxy)phenyl]-N-(pentylsulfonyl)propanamide] had a melting point of 92.2 to 93.6 °C.
On to `C/C(=C\c1ccc(OC(C)C)cc1Oc1ncc(C(F)(F)F)cc1Cl)C(=O)NS(=O)(=O)NCCc1ccccc1` [Example 220, (2E)-3-(2-{[3-chloro-5-(trifluoromethyl)pyridin-2-yl]oxy}-4-isopropoxyphenyl)-2-methyl-N-{[(2-phenylethyl)amino]sulfonyl}acrylamide], for which the melting point is 147 to 147.5 °C.
`COCCOc1ccc(/C=C/C(=O)NS(=O)(=O)c2ccc(Cl)cc2)c(Oc2ncc(C(F)(F)F)cc2Cl)c1` [Example 229, (2E)-N-[(4-chlorophenyl)sulfonyl]-3-[2-{[3-chloro-5-(trifluoromethyl)pyridin-2-yl]oxy}-4-(2-methoxyethoxy)phenyl]acrylamide]: the melting point was in the range of 182 to 182.5 °C.
To `CCCCNC(=O)OCCCc1ccc(OCCOC)cc1Oc1ncc(C(F)(F)F)cc1Cl` [Example 49, 3-[2-{[3-chloro-5-(trifluoromethyl)pyridin-2-yl]oxy}-4-(2-methoxyethoxy)phenyl]propyl butylcarbamate] belongs 91.7 to 91.8 °C.
To `CCCCCS(=O)(=O)NC(=O)CCc1ccc(OCCOC)cc1OCC1CCCO1` (centres unmarked) [Example 166, 3-[4-(2-methoxyethoxy)-2-(tetrahydrofuran-2-ylmethoxy)phenyl]-N-(pentylsulfonyl)propanamide] belongs 57.8 to 58.9 °C; to `CCCCCS(=O)(=O)NC(=O)CCc1ccc(OCCC2(C)OCCO2)cc1Oc1ncc(C(F)(F)F)cc1Cl` [Example 425, 3-{2-{[3-chloro-5-(trifluoromethyl)pyridin-2-yl]oxy}-4-[2-(2-methyl-1,3-dioxolan-2-yl)ethoxy]phenyl}-N-(pentylsulfonyl)propanamide], 96.5 to 97.5 °C; to `CCCCCS(=O)(=O)NC(=O)/C=C/c1ccc(OCCOC)cc1Cc1ncc(Br)s1` [Example 178, (2E)-3-[2-[(5-bromo-1,3-thiazol-2-yl)methyl]-4-(2-methoxyethoxy)phenyl]-N-(pentylsulfonyl)acrylamide], 88.5 to 89.1 °C.
For `COCCOc1ccc(/C=C/C(=O)NS(=O)(=O)c2ccc(F)cc2)c(Oc2ncc(C(F)(F)F)cc2Cl)c1` [Example 237, (2E)-3-[2-{[3-chloro-5-(trifluoromethyl)pyridin-2-yl]oxy}-4-(2-methoxyethoxy)phenyl]-N-[(4-fluorophenyl)sulfonyl]acrylamide] the value was 183 to 184 °C; for `CCCCCS(=O)(=O)NC(=O)/C=C/c1ccc(OCCOC)cc1OCC1CCCCC1` [Example 158, (2E)-3-[2-(cyclohexylmethoxy)-4-(2-methoxyethoxy)phenyl]-N-(pentylsulfonyl)acrylamide], 97.5 to 98.3 °C.
In turn, `CCCCCS(=O)(=O)NC(=O)/C=C/c1cc(OCCCC)nn1Cc1ccc(C(F)(F)F)cc1Cl` [Example 106, (2E)-3-{3-butoxy-1-[2-chloro-4-(trifluoromethyl)benzyl]-1H-pyrazol-5-yl}-N-(pentylsulfonyl)acrylamide] came in with a melting point of 130 to 132 °C.
For the compound `CCCCCS(=O)(=O)NC(=O)/C=C/c1ccc(OCCO[Si](c2ccccc2)(c2ccccc2)C(C)(C)C)cc1Oc1ncc(C(F)(F)F)cc1Cl` (hydrate or solvate), the melting point is 108 to 108.5 °C.
`COCCOc1ccc(/C=C/COC(=O)NS(=O)(=O)NCCc2ccccc2)c(Oc2ncc(C(F)(F)F)cc2Cl)c1` [Example 435, (2E)-3-[2-{[3-chloro-5-(trifluoromethyl)pyridin-2-yl]oxy}-4-(2-methoxyethoxy)phenyl]prop-2-en-1-yl {[(2-phenylethyl)amino]sulfonyl}carbamate]: the melting point was in the range of 113 to 114 °C.
